Measurements taken from patent US8993626B2, “Methods of treatment using sterculic acid” (The United States of America, as represented by the …, priority 2010, dated 2015).

Legend:
HUVEC [1] = assay: Cord formation assay on Matrigel; assay type: cell-based; conditions: data not shown
Leukemia, HL-60 (TB) = assay: NCI in vitro anti-cancer cell line screen (SRB); assay type: cell-based; conditions: Homo sapiens, 48 h
ARPE-19 cells = assay: Immunoblots of CHOP and GRP78; assay type: cell-based; conditions: 1 μM + 8 μM 7KCh
Description: FIGS. 16A-16E depict the secreted protein levels of (A) VEGF, (B) IL-6, and (C) IL-8 were measure by ELISA 48 hr after treatment with 6 μM 7KCh, 1 μM sterculic acid, 1 μM stearic acid, or the combinations of 7KCh with either sterculic acid or stearic acid. Error bars indicate the standard deviations. *p<0.05 comparing to 7KCh, n=3. Two-tailed Student's t-test. The expressions of GRP78 and CHOP were shown by immunoblots (D) 24 hr or (E) 48 hr after treatment with 8 μM 7KCh, 1 μM sterculic acid, 1 μM stearic acid, or the combinations of 7KCh with either sterculic acid or stearic acid.
ARPE-19 cells were seeded in 24-well plates with 1×10^5 cells per well and allowed to recover for 16-24 hr. Once confluency reached approximately 90%, the effect of the fatty acids against 7KCh-mediated cell death was examined 24 hr after incubation in serum-free medium with 12 μM 7KCh. Fatty acids were tested at 0.1, 0.5, 1, 5 and 10 μM concentrations. The effects of the fatty acids against 7KCh-mediated inflammation and ER stress were examined by incubating cells in 1 μM fatty acids with either 8 μM 7KCh (24 hr for quantitative real-time PCR (qRT-PCR), 24 and 48 hr for immunoblot), or 6 μM 7KCh for 48 hr (for ELISA). Three individual experiments were performed for each treatment with quadruplicate measurements performed for each experiment in 24-well plates.
Lysis of ARPE-19 cells was performed using MPER buffer solution (Thermo Fisher Scientific) containing Complete Protease Inhibitor Cocktail (Roche Diagnostics). A total of 10 μg protein samples of the cell lysate were separated by SDS-PAGE on 10% Bis-Tris gels (Invitrogen). The gels were blotted on to nitrocellulose membranes (Invitrogen). The proteins were probed with primary antibodies for CHOP (1:1000 dilution), GRP78 (1:1000), or GAPDH (1:2000) at 4° C. overnight. The membranes were then further incubated with anti-rabbit IgG, HRP-linked antibodies (1:2000 dilution) at room temperature for 1 hr. […]

Melanoma, LOX-IMVI = assay: NCI in vitro anti-cancer cell line screen (SRB); conditions: Homo sapiens, 48 h
Description: The human tumor cell lines used in the cancer screen panel were grown in RPMI 1640 medium containing 5% FBS and 2 mM L-glutamine. The cells were inoculated into 96-well microtiter plates in 100 μl at plating density ranging from 5000 to 40,000 cell/well. […] Following drug addition, the plates were incubated for an additional 48 h. The assay was terminated by the addition of cold 10% TCA. The supernatant was discarded, and the plates were washed five times with water and air dried. Sulforhodamine B (SRB) solution (100 μl) at 0.4% (w/v) in 1% acetic acid was added to each well, and plates were incubated for 10 min at room temperature. After staining, unbound dye was removed by washing five times with 1% acetic acid and the plates were air dried. Bound stain was subsequently solubilized with 10 mM trizma base, and the absorbance was read on an automated plate reader at a wavelength of 515 nm.
A sulforhodamine B (SRB) end point was used to calculate the median growth inhibition (GI50). GI50 refers to the concentration at which the drug inhibits tumor cell growth by 50%.

HUVEC [2] = assay: Cell migration (chemotaxis) assay, Boyden chamber, VEGF as chemoattractant; assay type: cell-based
Description: Cell migration was assessed using the 48-well Boyden chamber and 8 μm pore size collagen-coated (10 μg/ml rat tail collagen; Collaborative Laboratories) polycarbonate filters (Osmonics, Inc). The bottom chamber wells received 29 μl of DMEM medium alone (baseline) or medium containing chemoattractant (VEGF). The top chambers received 45 μl of HUVEC cell suspension (1×10^6 cells/ml) prepared in DMEM+1% BSA with or without sterculic acid. After 5 h incubation at 37° C., the membrane was rinsed in PBS, fixed and stained Diff-Quick solutions. The filter was placed on a glass slide with the migrated cells facing down and cell on top were removed using Kimwipe. The testing was performed in 4 replicates and five fields were counted from each well. The data was plotted as mean migrated cells±SD. IC50 was calculated from the plotted data.

[3] = test system: Human retinal pigment epithelial (RPE) cells (ARPE-19); assay: Microarray-based gene expression analysis of sterculic acid treated RPE cells; assay type: cell-based; conditions: 10 μM sterculic acid, 72 h
Description: Human retinal pigment epithelial (RPE) cells (ARPE-19) obtained from ATCC (Manassas, Va.) were grown in Dulbecco's Modified Eagle's Medium (DMEM) containing nutrient mixture F12 (Cellgro, Va.) supplemented with 5% fetal bovine serum, penicillin (100 U/ml) and streptomycin (100 μg/ml). Cells were seeded at a density of 2×10^5 cells/ml in complete medium and allowed to grow overnight. The culture medium was replaced next day with fresh medium before treating with 10 μM of sterculic acid dissolved in DMSO. The controls received the same amount of DMSO. After 72 h, total RNA, 100 ng, was amplified according to Affymetrix's small sample protocol, and 20 μg of cRNA was then hybridized on each NEI GeneChip microarray. After hybridization, GeneChip array was washed, stained with streptavidin-PE (Molecular Probes), amplified with biotinylated anti-streptavidin antibody and scanned with an argon ion Confocal Laser at 570 nm (Affymetrix). Affymetrix GeneChip Operating software was used for absolute expression and to normalize the gene expression levels between any two samples. Data were then incorporated into GeneSpring software 7.2 ([…]) for chip normalization, filtering and cluster analysis.

ARPE19 cells [4] = assay: CellTiter-Glo luminescent cell viability assay, 15 μM 7KCh-induced cytotoxicity; assay type: cell-based, human; conditions: 1 μM + 15 μM 7KCh, 24 hr
ARPE19 cells [5] = assay: Microelectronic cell sensor assay (RT-CES), 7KCh-induced cytotoxicity; conditions: 1 μM fatty acid + 15 μM 7KCh, serum free media
Description: 4×10^4 cells were seeded onto wells of 16× microtiter plates. […] Cell viability was determined as a cell index (CI) calculated from the impedance of each well automatically by the RT-CES system once per hr until the end of the experiment. The data was normalized at the point immediately prior to compound treatment.
RT-CES® System is a cell-based assay system that monitors cellular events by measuring the electronic impedance of sensor electrodes integrated on the bottom of microtiter E-Plates. The presence of the cells will lead to an increase in the electrode impedance. The more cells attached to the sensor, the higher the impedance that could be monitored with RT-CES.
1) Cells were cultivated in the ACEA's 16X E-plate device containing microelectrodes at the bottom of each well to measure contact area and electrical properties of adherent cells. […]
4) Cell growth was monitored periodically (every 1 hr) for indicated durations via calculation of a “cell index” (reflect to the surface area covered by the cells) in each well. […]
6) The sensor devices were put into the incubator again and the cells were continuously monitored cellular status changes.
7) Cell viability was determined as a cell index (CI) calculated from the impedance of each well automatically by the RT-CES system once per hr until the end of the experiment. […]

CCCCCCCCC1=C(CCCCCCCC(=O)O)C1 [sterculic acid, 8-(2-octacyclopropen-1-yl)octanoic acid]
viability of HUVEC at concentrations required to inhibit cord formation (HUVEC [1]): did not affect their viability | GI50 (Leukemia, HL-60 (TB)): 10 µM | effect on 7KCh-induced CHOP and GRP78 protein expression (ARPE-19 cells; 24 hr): completely inhibited | inhibitory effect on CHOP and GRP78 protein expression (ARPE-19 cells; after 48 hr): seems to decrease | GI50 (Melanoma, LOX-IMVI): 1 µM | cell toxicity at migration-inhibiting concentration (HUVEC [2]): without showing significant cell toxicity | concentration that significantly inhibited VEGF-induced endothelial cell migration (HUVEC [2]; 5 h): Less than 100 μM | Fold Change, ALDH3A1, down-regulated [3]: 7 fold | Fold Change, ALDH7A1, up-regulated [3]: 15 fold | Fold Change, ATF4, down-regulated [3]: 7 fold | Fold Change, BMP7, up-regulated [3]: 6 fold | Fold Change, CRABP1, down-regulated [3]: 8 fold | Fold Change, CTSC, up-regulated [3]: 9 fold | Fold Change, FNTA, up-regulated [3]: 4 fold | Fold Change, GADD45B, down-regulated [3]: 7 fold | Fold Change, GOT2, up-regulated [3]: 5 fold | Fold Change, HSPCA, up-regulated [3]: 11 fold | Fold Change, HYOU1, down-regulated [3]: 10 fold | Fold Change, IGFBP3, down-regulated [3]: 3 fold | Fold Change, MMP2, down-regulated [3]: 7 fold | Fold Change, MT1H, down-regulated [3]: 8 fold | Fold Change, PALLD, up-regulated [3]: 5 fold | Fold Change, SCEL, up-regulated [3]: 5 fold | Fold Change, SOD1, up-regulated [3]: 5 fold | Fold Change, SUOX, up-regulated [3]: 3 fold | Fold Change, VBP1, up-regulated [3]: 5 fold | cell viability relative to the level of untreated control (ATP level) (ARPE19 cells [4]): 80% | protection from 7KCh induced cytotoxicity (cell index) (ARPE19 cells [5]): markedly protected
